Patent publication US20080269170A1, “Novel 2,4-Dianilinopyrimidine Derivatives, the Preparation Thereof, Their Use as Medicaments, Pharmaceutical Compositions and, in Particular, as IKK Inhibitors” (sanofi-aventis, priority 2005, published 2008)
Where a name gives a salt, the structure may show the parent alone.

SMILES | melting point
Cc1cc(Nc2ccnc(Nc3ccc(S(=O)(=O)N(CCN4CCCC4)C4CCN(C)CC4)cc3)n2)ccc1F [Example 87, 4-({4-[(4-Fluoro-3-methylphenyl)amino]-pyrimidin-2-yl}amino)-N-(1-methylpiperidin-4-yl)-N-(2-pyrrolidin-1-ylethyl)benzenesulfonamide] | 93 to 103 °C
CN(C1CCN(Cc2ccccc2)CC1)S(=O)(=O)c1ccc(Nc2nccc(Nc3ccc(F)cc3)n2)cc1 [Example 3, N-(1-Benzylpiperidin-4-yl)-4-[4-(4-fluoro-phenylamino)pyrimidin-2-ylamino]-N-methylbenzene-sulfonamide] | 186 to 190 °C
CN1CCC(N(CC[C@H]2CCCN2)S(=O)(=O)c2ccc(Nc3nccc(Nc4ccc(F)cc4)n3)cc2)CC1 [Example 153, 4-({4-[(4-Fluorophenyl)amino]pyrimidin-2-yl}amino)-N-(1-methylpiperidin-4-yl)-N-{2-[(2R)-pyrrol-idin-2-yl]ethyl}benzenesulfonamide] | 85 °C
CN(C1CCN(Cc2ccsc2)CC1)S(=O)(=O)c1ccc(Nc2nccc(Nc3ccc(F)cc3)n2)cc1 [Example 16, 4-[4-(4-Fluorophenylamino)pyrimidin-2-ylamino]-N-methyl-N-(1-thiophen-3-ylmethylpiperidin-4-yl)benzenesulfonamide] | 173 to 174 °C
CN(C)C1CCC(N(C)S(=O)(=O)c2ccc(Nc3nccc(Nc4ccc(F)cc4)n3)cc2)CC1 (stereo not drawn) [Example 140, 4-({4-[(4-Fluorophenyl)amino]pyrimidin-2-yl}amino)-N-methyl-N-[4-cis(dimethylamino)cyclohexyl]-benzenesulfonamide] | 222 °C
O=S(=O)(c1ccc(Nc2nccc(Nc3ccc(F)cc3)n2)cc1)N(CCN1CCCC1)C1CNC1 (as salt: hydrochloride) [Example 96, N-Azetidin-3-yl-4-({4-[(4-fluorophenyl)-amino]pyrimidin-2-yl}amino)-N-(2-pyrrolidin-1-ylethyl)-benzenesulfonamide hydrochloride] | 215 °C
Cc1cc(Nc2ccnc(Nc3ccc(S(=O)(=O)N(C)C4CCN(Cc5cnn(C)c5)CC4)cc3)n2)ccc1F [Example 135, 4-({4-[(4-Fluoro-3-methylphenyl)amino]-pyrimidin-2-yl}amino)-N-methyl-N-{1-[(1-methyl-1H-pyrazol-4-yl)methyl]piperidin-4-yl}benzenesulfonamide] | 125 to 150 °C
NCCN(C1CCOCC1)S(=O)(=O)c1ccc(Nc2nccc(Nc3ccc(F)cc3)n2)cc1 (as salt: hydrochloride) | 200 °C
CN(C)CCN(C1CCNCC1)S(=O)(=O)c1ccc(Nc2nccc(Nc3ccc(F)cc3)n2)cc1 (as salt: hydrochloride) | 220 °C
CN(C1CCN(Cc2cc[n+]([O-])cc2)CC1)S(=O)(=O)c1ccc(Nc2nccc(Nc3ccc(F)cc3)n2)cc1 [Example 29, 4-[4-(4-Fluorophenylamino)pyrimidin-2-ylamino]-N-[1-(1-N-oxidepyridin-4-ylmethyl)piperidin-4-yl]-N-methylbenzenesulfonamide] | 155 to 156 °C
CN1CCC(N(C)S(=O)(=O)c2ccc(Nc3nccc(Nc4cc(F)c(F)c(F)c4)n3)cc2)CC1 [Example 162, 4-[4-(3,4,5-Trifluorophenylamino)pyrimidin-2-ylamino]-N-methyl-N-(1-methylpiperidin-4-yl)benzenesulfonamide] | 226.9 °C
CN(C)C1CCC(N(C)S(=O)(=O)c2ccc(Nc3nccc(Nc4ccc(F)cc4)n3)cc2)CC1 (stereo not drawn) [Example 141, 4-({4-[(4-Fluorophenyl)amino]pyrimidin-2-yl}amino)-N-methyl-N-[4-trans(dimethylamino)cyclo-hexyl]benzenesulfonamide] | 218 °C
CN1CCC(N(CCN)S(=O)(=O)c2ccc(Nc3nccc(Nc4ccc(F)cc4)n3)cc2)CC1 (as salt: hydrochloride) | 225 °C
CC(C)CCN1CCC(N(C)S(=O)(=O)c2ccc(Nc3nccc(Nc4ccc(F)cc4)n3)cc2)CC1 [Example 39, 4-[4-(4-Fluorophenylamino)pyrimidin-2-yl-amino]-N-methyl-N-[1-(3-methylbutyl)piperidin-4-yl]-benzenesulfonamide] | 184 to 185 °C
CN(C1CCN(Cc2ccccn2)CC1)S(=O)(=O)c1ccc(Nc2nccc(Nc3ccc(F)cc3)n2)cc1 [Example 9, 4-[4-(4-Fluorophenylamino)pyrimidin-2-ylamino]-N-methyl-N-(1-pyridin-2-ylmethylpiperidin-4-yl)benzenesulfonamide] | 202 to 204 °C
NCCN(C1CCN(CC(F)(F)F)CC1)S(=O)(=O)c1ccc(Nc2nccc(Nc3ccc(F)cc3)n2)cc1 (as salt: hydrochloride) [Example 100, N-(2-Aminoethyl)-4-({4-[(4-fluorophenyl)-amino]pyrimidin-2-yl}amino)-N-[1-(2,2,2-trifluoro-ethyl)piperidin-4-yl]benzenesulfonamide hydrochloride] | 240 to 245 °C
Cc1cc(Nc2ccnc(Nc3ccc(S(=O)(=O)N(C)C4CCN(Cc5nccs5)CC4)cc3)n2)ccc1F [Example 131, 4-({4-[(4-Fluoro-3-methylphenyl)amino]-pyrimidin-2-yl}amino)-N-methyl-N-{1-[(1-thiazol-2-yl)-methyl]piperidin-4-yl}benzenesulfonamide] | 176 to 177 °C
CCOP(=O)(CCN1CCC(N(CCN)S(=O)(=O)c2ccc(Nc3nccc(Nc4ccc(F)cc4)n3)cc2)CC1)OCC | 90 °C
CSCCNC1CCC(N(C)S(=O)(=O)c2ccc(Nc3nccc(Nc4ccc(F)cc4)n3)cc2)CC1 (stereo not drawn) [Example 144, 4-({4-[(4-Fluorophenyl)amino]pyrimidin-2-yl}amino)-N-methyl-N-[4-cis(2-methylsulfanylethyl-amino)cyclohexyl]benzenesulfonamide] | 146 °C
CS(=O)(=O)CCN1CCC(NS(=O)(=O)c2ccc(Nc3nccc(Nc4ccc(F)cc4)n3)cc2)CC1 [Example 126, 4-({4-[(4-Fluorophenyl)amino]pyrimidin-2-yl}amino)-N-{1-[2-(methylsulfonyl)ethyl]piperidin-4-yl}benzenesulfonamide] | 183 °C
CCOP(=O)(CCN1CCC(N(CCCN)S(=O)(=O)c2ccc(Nc3nccc(Nc4ccc(F)cc4)n3)cc2)CC1)OCC | 125 to 130 °C
CN(C1CCN(Cc2cccs2)CC1)S(=O)(=O)c1ccc(Nc2nccc(Nc3ccc(F)cc3)n2)cc1 [Example 13, 4-[4-(4-Fluorophenylamino)pyrimidin-2-ylamino]-N-methyl-N-(1-thiophen-2-ylmethylpiperidin-4-yl)benzenesulfonamide] | 175 to 176 °C
CN(C1CCSCC1)S(=O)(=O)c1ccc(Nc2nccc(Nc3ccc(F)cc3)n2)cc1 [Example 113, 4-({4-[(4-Fluorophenyl)amino]pyrimidin-2-yl}amino)-N-methyl-N-(tetrahydro-2H-thiopyran-4-yl)-benzenesulfonamide] | 181.5 °C

Results, then the compound that gave them:

melting point | SMILES
195 °C | CCN1CC(N(CCN2CCCC2)S(=O)(=O)c2ccc(Nc3nccc(Nc4ccc(F)c(C)c4)n3)cc2)C1 [Example 104, N-(1-Ethylazetidin-3-yl)-4-({4-[(4-fluoro-3-methylphenyl)amino]pyrimidin-2-yl}amino)-N-(2-pyrrolidin-1-ylethyl)benzenesulfonamide]
194 to 195 °C | CC(C)CN1CCC(N(C)S(=O)(=O)c2ccc(Nc3nccc(Nc4ccc(F)cc4)n3)cc2)CC1 [Example 38, 4-[4-(4-Fluorophenylamino)pyrimidin-2-yl-amino]-N-(1-isobutylpiperidin-4-yl)-N-methylbenzene-sulfonamide]
202 to 203 °C | CC(C)N1CCC(N(C)S(=O)(=O)c2ccc(Nc3nccc(Nc4ccc(F)cc4)n3)cc2)CC1 [Example 37, 4-[4-(4-Fluorophenylamino)pyrimidin-2-yl-amino]-N-(1-isopropylpiperidin-4-yl)-N-methylbenzene-sulfonamide]
189 °C | CNC1CCC(N(CCN2CCCC2)S(=O)(=O)c2ccc(Nc3nccc(Nc4ccc(F)cc4)n3)cc2)CC1 (stereo not drawn) [Example 146, 4-({4-[(4-Fluorophenyl)amino]pyrimidin-2-yl}amino)-N-(4-cis(methylamino)cyclohexyl)-N-(2-pyrrolidin-1-ylethyl)benzenesulfonamide]
200 °C | O=S(=O)(c1ccc(Nc2nccc(Nc3ccc(F)cc3)n2)cc1)N(CCN1CCCC1)C1CCNCC1 (as salt: hydrochloride)
192 °C | CN(C1CCN(CCCC(F)(F)F)CC1)S(=O)(=O)c1ccc(Nc2nccc(Nc3ccc(F)c(F)c3)n2)cc1 [Example 108, 4-({4-[(3,4-Difluorophenyl)amino]pyrimidin-2-yl}amino)-N-methyl-N-[1-(4,4,4-trifluorobutyl)-piperidin-4-yl]benzenesulfonamide]
234 to 235 °C | CN(C1CCN(CC(C)(C)O)CC1)S(=O)(=O)c1ccc(Nc2nccc(Nc3ccc(F)c(F)c3)n2)cc1 [Example 167, 4-[4-(3,4-Difluorophenylamino)pyrimidin-2-ylamino]-N-[1-(2-hydroxy-2-methylpropyl)piperidin-4-yl]-N-methylbenzenesulfonamide]
135.2 °C | O=S(=O)(c1ccc(Nc2nccc(Nc3ccc(F)cc3)n2)cc1)N(CCN1CCCC1)[C@H]1CC[C@H](O)CC1 [Example 119, 4-({4-[(4-Fluorophenyl)amino]pyrimidin-2-yl}amino)-N-(trans-4-hydroxycyclohexyl)-N-(2-pyrrolidin-1-ylethyl)benzenesulfonamide]
183 to 186 °C | CN1CCC(N(C)S(=O)(=O)c2ccc(Nc3nccc(Nc4ccc(F)c(Cl)c4)n3)cc2)CC1 [Example 12, 4-[4-(3-Chloro-4-fluorophenylamino)pyrimidin-2-ylamino]-N-methyl-N-(1-methylpiperidin-4-yl)benzenesulfonamide]
95 to 100 °C | CCOP(=O)(CCN1CCC(N(C)S(=O)(=O)c2ccc(Nc3nccc(Nc4ccc(F)cc4)n3)cc2)CC1)OCC
270 °C | NCCN(C1CCNCC1)S(=O)(=O)c1ccc(Nc2nccc(Nc3ccc(F)cc3)n2)cc1 (as salt: hydrochloride) [Example 44, N-(2-Aminoethyl)-4-[4-(4-fluorophenyl-amino)pyrimidin-2-ylamino]-N-piperidin-4-ylbenzene-sulfonamide hydrochloride]
